As usually defined, the Tmax is the time at which the peak concentration occurs. Usually AUC stands for the area under the concentration-time curve, a measure of exposure. A low value points to low exposure. The term Cmax denotes the peak of the concentration-time curve. As a reminder, the AUC(0-t) is exposure summed from dosing to a finite time, without extrapolation to infinity. The low end stands for less exposure, the high end for more exposure. The term bioavailability denotes dose-corrected exposure relative to a reference, in per cent.

The test system of series [1] is PDE-4. Description: Phosphodiesterase 4 assay ([3H]cAMP SPA), enzyme preparation from rat heart. It is filed as biochemical. Conditions: 0.1-20 μg/ml, compared with rolipram (FIG. 2).
The subject of series [2] is PDE-4. Described as above. Format: biochemical. As to conditions: PDE-4 activity, dose 10 μg/ml. Here is the method: FIG. 2. […] To examine whether IICT-TA67 inhibits PDE-4 activity in vitro, enzyme preparations were incubated in the absence or presence of different concentrations (1-20 μg/ml) of IICT-TA67 and breakdown of cAMP was monitored by β counter.
Table 1. Measurement of phosphodiesterase (PDE)-4 activity by compounds.
Heart was excised from anesthetized rat and transfer into normal saline solution. […] The homogenate was centrifuged at 500×g for 5 minute at 4° C. Then sup was taken for further centrifuged at 40,000×g for 30 minute (ultra centrifugation). After centrifugation supernatant was collected for phosphodiesterase assay. Protein concentration was estimated and for each assay, 2.5 μg protein (PDE enzyme preparation) was used.
Phosphodiesterase 4 assay: Phosphodiesterase 4 assay was conducted with [^3H] cAMP SPA enzyme assay (GE Amersham, UK) using 2.5 μg enzyme preparation for each well. Into each well 60 μl water, 10 μl assay buffer supplied with the kit, 10 μl compound (inhibitor), 10 μl PDE enzyme or homogenizing buffer (blank) and 10 μl radiolabel led cAMP ([^3H]cAMP, GE Amersham, UK) were added. To check activity of the enzyme without inhibitor 10 μl DMSO was added in place of inhibitor to a separate well. The reaction mixtures were incubated for 30 mi at 30° C. The reaction was stopped by adding 50 μl SPA bead supplied with the kit. It was then mixed well and allowed to stand at room temperature for 20 min. Breakdown of cAMP in each tube was monitored by β counter. The reading in each tube was obtained in counts per minute (CPM). The reading of the blank tube (without enzyme) was subtracted from each tube to normalize the counts. The enzyme activity was calculated by considering the CPM reading without any inhibitor (compound) as 100.

Series [3] in a line: Pharmacokinetic study, oral and i.v. route. As to conditions: mice; for half-life: read-out: T ½ (converted). Format: in vivo, swiss mice. Here is the method:
FIG. 6. Pharmacokinetics of IICT-TA67 through oral route. FIG. 7. Pharmacokinetics of IICT-TA67 through intravenous (i.v) route in mice. IICT-TA67 (20 mg/kg) was administered orally (or 10 mg/kg by i.v. route) as a fine suspension in 1% Gum acacia. Blood samples were drawn from retro-orbital plexus at designated times in pre-labeled heparinised tubes and centrifuged (3500 rpm×10 minutes) to obtain the plasma. Blood samples were collected at 0, 5, 15 and 30 min, and 1, 2, 4, 6, 8, 16 and 24 hrs post-administration after oral/iv route. HPLC determinations were done on Shimadzu chromatograph (Model: LC-10 Atvp equipped with a diode array detector). The Molecule ICT-TA67 was determined at 276 nm using RP-18 column (5 μm×25 cm). Mobile phase consisted of acetonitrile: water (55:45) with a flow rate of 1.0 ml/min.
Animals. Healthy swiss mice of both the sexes (25-30) were used. The animals were kept (3/cage) under controlled conditions (temp 26±2° C.; relative humidity 50±5%; 12 h light/dark cycle) and maintained on pelleted rodent diet (Ashirwad Industries Ltd. Chandigarh, India). Water was provided ad libitum. Institutional Animal Ethics committee approved the animal experiments. Animals were fasted for 16 hours before use.
Step 1: Dosing: IICT-TA67 (20 mg/kg) was administered orally (or 10 mg/kg by i.v.route) as a fine suspension in 1% Gum acacia. Blood samples were drawn from retro-orbital plexus at designated times in pre-labeled heparinised tubes and centrifuged (3500 rpm×10 minutes) to obtain the plasma. Blood samples were collected at 0, 5, 15 and 30 min, and 1, 2, 4, 6, 8, 16 and 24 hrs post-administration after oral/iv route.
Step 2: HPLC determinations: Aliquots of plasma were mixed with acetonitrile (1:2), vortexed for two minutes (2500 rpm) and centrifuge at 5000 rpm for 10 min. The organic layer was collected and evaporated to dryness using solvent evaporator (Model: SPD 111V, Thermo Electron Corporation, MA). The dried samples were reconstituted in mobile phase for HPLC analysis. In a similar manner samples were also prepared from aliquots of plasma collected from untreated animals which were spiked with molecule 67 (0.25 μg-10 μg/ml). […] Reproducibility of the method was defined by both intra-, and inter-day variance. The retention time of Mol. 67 was 10.688 min, at which no other interfering peak was observed. The lower limit of detection (LOD) was 11 ng/ml; limit of quantitation (LOQ) was 32 ng/ml; recovery was 90±2%.
HPLC determinations were done on Shimadzu chromatograph (Model: LC-10 Atvp equipped with a diode array detector). Molecule 67 was determined at 276 nm using RP-18 column (5 μm×25 cm). Mobile phase consisted of acetonitrile: water (55:45) with a flow rate of 1.0 ml/min.
Step 3: Calculating Bioavailability indices: A concentration-time curve for Molecule 67 was established and pharmacokinetic parameters AUC, Cmax, and tmax were determined by a non-compartmental analysis using TOPFIT software package. Absolute bioavailability was determined using the following formula: AUCoral×doseiv/AUCiv×Doseoral.

Where [4] appears, read: both sexes, Swiss, mouse, plasma, iv, 10 mg/kg.
Setting [5] is: both sexes, Swiss, mouse, plasma, oral, 20 mg/kg.

Values joined by “and” are separate entries in the source; they are usually repeats but may differ in a detail not shown here. Equal values may be shown once. Read-outs that look alike come from different tables or passages of the source.

Consider `COc1ccc(C(c2[nH]c3ccccc3c2CC(=O)O)c2[nH]c3ccccc3c2CC(=O)O)cc1Oc1nc(NC2CC2)nc(NC2CC2)n1` [Compound 7, 2,2′-[2,2′-3-(4,6-bis-cyclopropylamino)-1,3,5-triazin-2-yl-oxy-4-methoxy-phenyl]-methylene-bis-(1H-indole-3,3-diyl)-diacetic acid], for which the “inhibition of PDE4 activity” value in series [1] is “inhibited PDE4 activity in a dose dependent manner”. Moreover, in series [2], the Inhibition % is 60%. For the same compound, the Tmax was 0.167 h in series [3] (setting [4]); 3 h in series [3] (both sexes, Swiss, mouse, plasma, po, 20 mg/kg); 2 h in series [3] (both sexes, Swiss, mouse, plasma, po, 20 mg/kg, 20 mg/kg (Table 2)). Moreover, the half-life was 0.93 h in series [3] (both sexes, Swiss, mouse, plasma, iv, 10 mg/kg, i.v., 10 mg/kg) and 4.26 h in series [3] (both sexes, Swiss, mouse, plasma, po, 20 mg/kg, oral, 20 mg/kg). Also, the AUC in series [3] (setting [4]) is 358 ng·h/mL; in series [3] (setting [5]), 503 ng·h/mL. In addition, the Cmax in series [3] (setting [4]) was determined as 332 ng/mL; in series [3] (setting [5]), 107 ng/mL. Also, in series [3] (setting [4]), the clearance is 466 mL/min and 466 mL/min/kg. The AUC(0-t) in series [3] (both sexes, Swiss, mouse, plasma, iv, 10 mg/kg (Table 2)) was determined as 358 ng·h/mL; in series [3] (both sexes, Swiss, mouse, plasma, oral, 20 mg/kg (Table 2)) it was 503 ng·h/mL. In addition, the Vd is 37.5 L and 37.5 L/kg in series [3] (both sexes, Swiss, mouse, plasma, iv, i.v., 10 mg/kg, read-out: Vd); 474 L in series [3] (oral, 20 mg/kg, listed as TA-67, 20 mg/kg). In addition, the bioavailability in series [3] (both sexes, Swiss, mouse, plasma, oral, AUCoral×doseiv/AUCiv×Doseoral, read-out: Absolute bioavailability (F)) turned out to be 70.3%. For the same compound, in series [3] (i.v., 10 mg/kg, listed as IICT-TA67, 10 mg/kg), the “T ½” value stood at 1.5 h.

The values are drawn from patent publication US9085559B2, “Triazine-aryl-bis-indoles and process for preparation thereof” (COUNCIL OF SCIENTIFIC & INDUSTRIAL RESEARCH, priority 2010, dated 2015).
